Results: patent US20020076736A1, “Methods of affecting laminin 5 processing” (priority 2000, published 2002)
Entries after “also recorded” stand apart in the source; their conditions may differ.

Key:
[1] = biological target: unprocessed human laminin 5 (α3 chain of 200 kDa, β3 chain of 140 kDa, γ2 chain of 155 kDa) (UniProt Q16787)
BMP-1 = biological target: T1, BMP-1 (Homo sapiens, UniProt P13497); experiment: Inhibition of BMP-1 activity, enzyme-based assays of collagen proteolysis; assay type: biochemical
T1 sequence (P13497 121-730 isoform P13497-2 limits assumed): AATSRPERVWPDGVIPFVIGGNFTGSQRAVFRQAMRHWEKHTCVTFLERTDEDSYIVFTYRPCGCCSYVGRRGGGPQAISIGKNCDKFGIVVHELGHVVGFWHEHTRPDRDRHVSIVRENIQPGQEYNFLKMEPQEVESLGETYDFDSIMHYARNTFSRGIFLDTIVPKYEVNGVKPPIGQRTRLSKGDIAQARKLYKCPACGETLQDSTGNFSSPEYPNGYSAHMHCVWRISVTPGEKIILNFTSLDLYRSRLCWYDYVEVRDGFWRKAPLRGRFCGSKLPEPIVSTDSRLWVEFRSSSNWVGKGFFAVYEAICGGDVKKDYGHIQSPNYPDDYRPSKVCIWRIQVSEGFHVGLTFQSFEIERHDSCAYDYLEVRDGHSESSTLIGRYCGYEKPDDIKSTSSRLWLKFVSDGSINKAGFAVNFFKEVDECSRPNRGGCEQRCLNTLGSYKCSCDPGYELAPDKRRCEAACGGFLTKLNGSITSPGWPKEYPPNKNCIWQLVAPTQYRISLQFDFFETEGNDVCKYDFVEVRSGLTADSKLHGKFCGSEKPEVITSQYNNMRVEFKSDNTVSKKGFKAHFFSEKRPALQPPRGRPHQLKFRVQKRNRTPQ

MMP-1 = biological target: T2, MMP-1 (Homo sapiens, UniProt P03956); experiment: Inhibition of MMP-1 activity; assay type: biochemical
T2 sequence (P03956 100-469): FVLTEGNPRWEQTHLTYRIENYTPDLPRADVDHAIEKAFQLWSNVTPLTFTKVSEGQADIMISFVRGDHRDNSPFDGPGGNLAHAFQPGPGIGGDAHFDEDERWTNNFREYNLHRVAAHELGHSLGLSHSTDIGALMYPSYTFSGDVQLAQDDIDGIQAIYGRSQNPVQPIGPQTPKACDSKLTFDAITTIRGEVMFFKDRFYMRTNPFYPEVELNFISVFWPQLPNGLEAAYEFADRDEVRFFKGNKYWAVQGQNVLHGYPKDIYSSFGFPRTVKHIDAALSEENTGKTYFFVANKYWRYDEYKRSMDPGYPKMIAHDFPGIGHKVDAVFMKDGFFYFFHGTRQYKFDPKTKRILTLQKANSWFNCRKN

MMP-2 = biological target: T3, MMP-2 (Homo sapiens, UniProt P08253); experiment: Inhibition of MMP-2 activity; assay type: biochemical
T3 sequence (P08253 110-660): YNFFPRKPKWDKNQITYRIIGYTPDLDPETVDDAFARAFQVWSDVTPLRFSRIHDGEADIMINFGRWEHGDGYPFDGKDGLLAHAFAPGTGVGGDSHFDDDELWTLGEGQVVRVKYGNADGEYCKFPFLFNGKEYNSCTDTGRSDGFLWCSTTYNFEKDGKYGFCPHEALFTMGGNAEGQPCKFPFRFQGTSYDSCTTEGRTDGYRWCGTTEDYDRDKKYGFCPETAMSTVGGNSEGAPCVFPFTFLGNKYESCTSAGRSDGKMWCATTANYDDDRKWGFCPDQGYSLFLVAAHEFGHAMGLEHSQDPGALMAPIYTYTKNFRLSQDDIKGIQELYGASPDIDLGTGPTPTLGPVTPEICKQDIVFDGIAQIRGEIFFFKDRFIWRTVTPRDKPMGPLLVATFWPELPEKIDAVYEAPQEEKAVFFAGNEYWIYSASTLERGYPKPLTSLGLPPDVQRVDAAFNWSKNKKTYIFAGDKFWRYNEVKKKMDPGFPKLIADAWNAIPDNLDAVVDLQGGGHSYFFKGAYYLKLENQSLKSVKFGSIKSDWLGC

MMP-9 = MMP-9 (Homo sapiens, UniProt P14780); experiment: Inhibition of MMP-9 activity; assay type: biochemical
Chain of MMP-9 (P14780 94-707, species assumed): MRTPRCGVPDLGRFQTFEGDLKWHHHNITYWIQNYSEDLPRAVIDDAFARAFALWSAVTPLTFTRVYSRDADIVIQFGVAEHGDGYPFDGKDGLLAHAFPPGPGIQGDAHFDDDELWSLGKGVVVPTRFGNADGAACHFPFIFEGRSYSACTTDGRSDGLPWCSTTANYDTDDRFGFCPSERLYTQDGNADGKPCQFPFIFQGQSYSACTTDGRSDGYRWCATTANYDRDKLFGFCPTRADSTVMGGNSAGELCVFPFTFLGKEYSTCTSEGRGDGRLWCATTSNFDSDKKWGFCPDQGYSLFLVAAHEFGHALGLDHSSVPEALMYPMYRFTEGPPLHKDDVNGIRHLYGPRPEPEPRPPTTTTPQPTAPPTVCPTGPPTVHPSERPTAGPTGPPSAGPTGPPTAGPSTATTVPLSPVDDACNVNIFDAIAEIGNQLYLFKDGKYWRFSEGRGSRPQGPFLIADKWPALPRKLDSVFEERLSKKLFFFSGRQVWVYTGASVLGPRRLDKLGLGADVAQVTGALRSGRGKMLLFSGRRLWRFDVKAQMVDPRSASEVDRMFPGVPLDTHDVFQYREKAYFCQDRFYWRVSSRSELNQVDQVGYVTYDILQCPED

MT1-MMP = MT1-MMP (Homo sapiens, UniProt P50281); experiment: Inhibition of MT1-MMP activity; assay type: biochemical
cultured cells = experiment: Toxicity to cultured cells; assay type: cell-based; conditions: for toxicity to cultured cells at 100 times inhibitory levels: 100 times the concentration which inhibited BMP-1 activity; for toxic effect on cells: cell culture
keratinocytes = experiment: Keratinocyte migration, Boyden chambers; assay type: cell-based; conditions: for inhibition of keratinocyte migration, dose dependence: Boyden chamber and scratch assays
Description: Compounds 1 and 2 were used to examine the functional effects of processing by BMP-1 related proteins on keratinocyte migration. […] Keratinocytes were analyzed for migration in Boyden chambers in the presence of increasing amounts of the inhibitors. […] (Koivunen et al. (1999) Nature Biotechnology 17:768-774.)

squamous carcinoma cells = experiment: Migration of squamous carcinoma cells (general statement); assay type: cell-based
[2] = biological target: unprocessed human laminin 5 (α3 chain of 200 kDa, β3 chain of 140 kDa, γ2 chain of 155 kDa), Q16787
Chain of unprocessed human laminin 5 (α3 chain of 200 kDa, β3 chain of 140 kDa, γ2 chain of 155 kDa), Q16787 (Q16787 whole entry, looked up): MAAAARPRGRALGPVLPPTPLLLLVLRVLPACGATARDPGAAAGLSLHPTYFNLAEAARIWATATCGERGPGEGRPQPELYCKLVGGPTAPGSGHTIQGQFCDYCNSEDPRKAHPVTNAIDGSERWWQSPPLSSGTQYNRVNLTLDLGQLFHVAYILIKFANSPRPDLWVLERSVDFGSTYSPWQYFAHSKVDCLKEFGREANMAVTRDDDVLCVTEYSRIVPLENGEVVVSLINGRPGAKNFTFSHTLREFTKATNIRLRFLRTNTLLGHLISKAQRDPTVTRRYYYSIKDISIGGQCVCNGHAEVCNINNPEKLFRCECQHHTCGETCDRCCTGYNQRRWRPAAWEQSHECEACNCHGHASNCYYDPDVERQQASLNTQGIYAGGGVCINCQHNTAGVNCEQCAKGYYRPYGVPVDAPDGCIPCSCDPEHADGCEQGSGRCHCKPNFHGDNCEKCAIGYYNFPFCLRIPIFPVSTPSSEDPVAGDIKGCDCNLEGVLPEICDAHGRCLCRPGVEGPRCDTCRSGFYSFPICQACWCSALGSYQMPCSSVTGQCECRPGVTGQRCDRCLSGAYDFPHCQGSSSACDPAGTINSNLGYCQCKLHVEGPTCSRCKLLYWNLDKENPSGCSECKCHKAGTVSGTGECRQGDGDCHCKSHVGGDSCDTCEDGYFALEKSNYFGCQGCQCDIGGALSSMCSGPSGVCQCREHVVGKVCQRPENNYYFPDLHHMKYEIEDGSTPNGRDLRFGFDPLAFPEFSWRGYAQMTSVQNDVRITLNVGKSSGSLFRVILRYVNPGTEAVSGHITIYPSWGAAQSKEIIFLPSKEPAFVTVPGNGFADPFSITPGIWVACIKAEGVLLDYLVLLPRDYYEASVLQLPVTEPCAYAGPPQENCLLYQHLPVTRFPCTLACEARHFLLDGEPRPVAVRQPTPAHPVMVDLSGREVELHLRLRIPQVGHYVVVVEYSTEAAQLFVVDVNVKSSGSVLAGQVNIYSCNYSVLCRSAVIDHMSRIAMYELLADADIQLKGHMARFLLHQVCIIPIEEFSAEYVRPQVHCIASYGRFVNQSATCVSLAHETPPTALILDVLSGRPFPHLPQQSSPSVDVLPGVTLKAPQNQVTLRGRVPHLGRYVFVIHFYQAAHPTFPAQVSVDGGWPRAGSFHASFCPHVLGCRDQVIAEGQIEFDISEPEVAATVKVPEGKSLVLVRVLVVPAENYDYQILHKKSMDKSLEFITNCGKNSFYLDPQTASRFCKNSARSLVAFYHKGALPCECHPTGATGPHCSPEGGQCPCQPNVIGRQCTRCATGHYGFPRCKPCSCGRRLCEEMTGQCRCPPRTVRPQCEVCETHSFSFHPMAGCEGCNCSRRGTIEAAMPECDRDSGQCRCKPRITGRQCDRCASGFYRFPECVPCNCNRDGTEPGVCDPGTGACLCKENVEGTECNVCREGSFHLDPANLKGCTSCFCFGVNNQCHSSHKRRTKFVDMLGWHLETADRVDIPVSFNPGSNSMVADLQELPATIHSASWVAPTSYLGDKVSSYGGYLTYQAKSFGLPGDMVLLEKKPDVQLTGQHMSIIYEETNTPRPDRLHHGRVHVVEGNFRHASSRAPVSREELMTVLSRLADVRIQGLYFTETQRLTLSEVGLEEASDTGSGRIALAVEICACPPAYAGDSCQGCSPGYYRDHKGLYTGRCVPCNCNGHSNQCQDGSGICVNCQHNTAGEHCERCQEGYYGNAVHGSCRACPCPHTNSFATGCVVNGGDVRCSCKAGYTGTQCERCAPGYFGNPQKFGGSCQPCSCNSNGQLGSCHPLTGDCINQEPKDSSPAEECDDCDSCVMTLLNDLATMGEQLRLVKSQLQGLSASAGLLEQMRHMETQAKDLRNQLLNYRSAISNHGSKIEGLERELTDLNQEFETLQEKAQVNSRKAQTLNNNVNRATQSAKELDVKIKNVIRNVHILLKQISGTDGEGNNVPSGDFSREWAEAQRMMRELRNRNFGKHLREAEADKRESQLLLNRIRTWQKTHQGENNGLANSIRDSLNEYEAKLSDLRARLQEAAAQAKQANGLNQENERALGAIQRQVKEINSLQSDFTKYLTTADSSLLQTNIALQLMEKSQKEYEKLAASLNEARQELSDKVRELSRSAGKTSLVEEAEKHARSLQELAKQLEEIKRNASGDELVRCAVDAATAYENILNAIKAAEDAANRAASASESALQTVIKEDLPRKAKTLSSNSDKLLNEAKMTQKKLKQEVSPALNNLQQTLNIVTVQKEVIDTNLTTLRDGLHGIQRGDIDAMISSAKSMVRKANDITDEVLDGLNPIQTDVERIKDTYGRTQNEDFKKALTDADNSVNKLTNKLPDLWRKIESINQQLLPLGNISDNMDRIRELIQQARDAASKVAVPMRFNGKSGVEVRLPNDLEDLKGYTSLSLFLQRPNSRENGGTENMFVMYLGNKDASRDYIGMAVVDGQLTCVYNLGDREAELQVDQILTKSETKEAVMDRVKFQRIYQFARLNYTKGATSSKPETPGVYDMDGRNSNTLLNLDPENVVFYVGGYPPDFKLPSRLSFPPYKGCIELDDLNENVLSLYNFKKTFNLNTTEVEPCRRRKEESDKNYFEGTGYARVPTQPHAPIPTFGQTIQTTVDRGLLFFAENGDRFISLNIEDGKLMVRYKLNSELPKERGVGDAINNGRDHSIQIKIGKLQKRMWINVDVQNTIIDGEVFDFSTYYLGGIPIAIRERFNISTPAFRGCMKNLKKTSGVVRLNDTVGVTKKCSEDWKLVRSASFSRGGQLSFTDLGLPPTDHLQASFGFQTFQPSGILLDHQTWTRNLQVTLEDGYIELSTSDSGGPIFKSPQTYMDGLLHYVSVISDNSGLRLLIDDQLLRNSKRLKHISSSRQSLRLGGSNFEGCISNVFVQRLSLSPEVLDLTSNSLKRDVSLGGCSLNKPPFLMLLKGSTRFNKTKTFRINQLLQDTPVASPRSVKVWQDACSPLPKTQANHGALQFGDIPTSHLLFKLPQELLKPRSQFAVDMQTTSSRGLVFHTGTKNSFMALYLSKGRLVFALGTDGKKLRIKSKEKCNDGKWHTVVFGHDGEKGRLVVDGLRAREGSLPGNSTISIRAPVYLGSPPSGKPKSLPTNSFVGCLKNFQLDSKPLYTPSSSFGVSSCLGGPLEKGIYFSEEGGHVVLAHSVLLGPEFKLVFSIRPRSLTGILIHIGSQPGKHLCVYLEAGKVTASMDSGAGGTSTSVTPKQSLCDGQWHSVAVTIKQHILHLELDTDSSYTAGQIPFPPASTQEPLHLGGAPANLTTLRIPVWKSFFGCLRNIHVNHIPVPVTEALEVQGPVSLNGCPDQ

Chain of unprocessed human laminin 5 (α3 chain of 200 kDa, β3 chain of 140 kDa, γ2 chain of 155 kDa) (Q16787 whole entry, looked up): as above

human mammalian tolloid (mTld)
cleavage of the α3 chain of laminin 5 (matrix digestion, western blot) [1]: BMP-1, mTld, mTll-1, and mTLL-2 all cleaved the α3 chain of laminin 5

COc1ccc(CCN(CCC(=O)NO)S(=O)(=O)c2ccc(C(N)=NO)cc2)cc1 [Compound 3]
inhibition of BMP-1 activity (BMP-1): showed inhibition of BMP-1 activity
potency of BMP-1 inhibition relative to the other compounds (BMP-1): slightly less potent
inhibition of activity of MMP-1 (MMP-1): no inhibition
inhibition of activity of MMP-2 (MMP-2): no inhibition
inhibition of activity of MMP-9 (MMP-9): no inhibition
inhibition of activity of MT1-MMP (MT1-MMP): no inhibition
toxicity to cultured cells at 100 times inhibitory levels (cultured cells): nontoxic
toxic effect on cells (cultured cells): low cytotoxicity; also recorded: no toxic effect on cells
inhibition of keratinocyte migration (keratinocytes): potently inhibit
inhibition of keratinocyte migration, dose dependence (keratinocytes): inhibition of KC migration in a dose-dependent manner
inhibition of migration of squamous carcinoma cells (squamous carcinoma cells): potently inhibit

MMP-2
processing of collagen XVII (collagen XVII): it readily processed collagen XVII and collagen IV
digestion of type IV collagen (positive control, data not shown) (type IV collagen): MMP-2 completely digested an equimolar quantity of type IV collagen under the same conditions
processing of collagen IV (type IV collagen): it readily processed collagen XVII and collagen IV
cleavage of human laminin 5 [1]: it failed to cleave human laminin 5, even at six times the enzyme-to-substrate ratio used for BMP-1 cleavage studies
digestion of laminin 5 (100 ng/ml MMP-2, 37° C., 16 hours, western blot) [1]: no digestion of laminin 5 was seen with 100 ng/ml MMP-2 (over three times the amount of BMP-1 on a molar basis)

O=C(CCCC1C(=O)N(C23CC4CC(CC(C4)C2)C3)C(=O)N1Cc1ccccn1)NO (stereo not drawn) [Compound 1]
inhibition of BMP-1 activity (BMP-1): showed inhibition of BMP-1 activity
inhibition of activity of MMP-1 (MMP-1): no inhibition
inhibition of activity of MMP-2 (MMP-2): no inhibition
inhibition of activity of MMP-9 (MMP-9): no inhibition
inhibition of activity of MT1-MMP (MT1-MMP): no inhibition
toxicity to cultured cells at 100 times inhibitory levels (cultured cells): nontoxic
toxic effect on cells (cultured cells): nontoxic; also recorded: no toxic effect on cells
inhibition of keratinocyte migration (keratinocytes): potently inhibit
inhibition of keratinocyte migration, dose dependence (keratinocytes): inhibition of KC migration in a dose-dependent manner
dose required to achieve nearly complete inhibition of migration (keratinocytes; Boyden chambers): 23 µM
inhibition of migration of keratinocytes, dose dependence (keratinocytes; Boyden chambers, 0, 10, 23 μM): dose dependent
inhibition of migration of squamous carcinoma cells (squamous carcinoma cells): potently inhibit

B1: human mammalian tolloid-like-2 (mTll-2) (protein)
chain: ATTSRTERIWPGGVIPYVIGGNFTGSQRAIFKQAMRHWEKHTCVTFIERTDEESFIVFSYRTCGCCSYVGRRGGGPQAISIGKNCDKFGIVAHELGHVVGFWHEHTRPDRDQHVTIIRENIQPGQEYNFLKMEAGEVSSLGETYDFDSIMHYARNTFSRGVFLDTILPRQDDNGVRPTIGQRVRLSQGDIAQARKLYKCPACGETLQDTTGNFSAPGFPNGYPSYSHCVWRISVTPGEKIVLNFTSMDLFKSRLCWYDYVEVRDGYWRKAPLLGRFCGDKIPEPLVSTDSRLWVEFRSSSNILGKGFFAAYEATCGGDMNKDAGQIQSPNYPDDYRPSKECVWRITVSEGFHVGLTFQAFEIERHDSCAYDYLEVRDGPTEESALIGHFCGYEKPEDVKSSSNRLWMKFVSDGSINKAGFAANFFKEVDECSWPDHGGCEHRCVNTLGSYKCACDPGYELAADKKMCEVACGGFITKLNGTITSPGWPKEYPTNKNCVWQVVAPAQYRISLQFEVFELEGNDVCKYDFVEVRSGLSPDAKLHGRFCGSETPEVITSQSNNMRVEFKSDNTVSKRGFRAHFFSDKDECAKDNGGCQHECVNTFGSYLCRCRNGYWLHENGHDCKEAGCAHKISSVEGTLASPNWPDKYPSRRECTWNISSTAGHRVKLTFNEFEIEQHQECAYDHLEMYDGPDSLAPILGRFCGSKKPDPTVASGSSMFLRFYSDASVQRKGFQAVHSTECGGRLKAEVQTKELYSHAQFGDNNYPSEARCDWVIVAEDGYGVELTFRTFEVEEEADCGYDYMEAYDGYDSSAPRLGRFCGSGPLEEIYSAGDSLMIRFRTDDTINKKGFHARYTSTKFQDALHMKK
cleavage activity toward the α3 chain and γ2 chain of laminin 5, compared with the other BMP-1 related proteins [2]: mTll-2 showed more potent cleavage activity toward the α3 chain and γ2 chain of laminin 5 compared to the other BMP-1 related proteins
cleavage of the α3 chain of laminin 5 (matrix digestion, western blot) [2]: BMP-1, mTld, mTll-1, and mTLL-2 all cleaved the α3 chain of laminin 5
cleavage of the γ2 chain of laminin 5 (matrix digestion, western blot) [2]: BMP-1 and mTLL-2 cleaved the γ2 chain of laminin 5

B2: human BMP-1 (bone morphogenetic protein-1) (protein)
chain: T1 sequence (P13497 121-730 isoform P13497-2 limits assumed)
cleavage of the α3 chain of laminin 5 (matrix digestion, western blot) [2]: BMP-1, mTld, mTll-1, and mTLL-2 all cleaved the α3 chain of laminin 5
cleavage of the γ2 chain of laminin 5 (matrix digestion, western blot) [2]: BMP-1 and mTLL-2 cleaved the γ2 chain of laminin 5
processing of the laminin 5 α3 chain (about 1 µg laminin 5 with 30 ng/ml BMP-1, 16 hours at 37° C., western blot) [2]: laminin α3 chain was completely processed from 200 kDa to 165 kDa by BMP-1

B3: human mammalian tolloid-like-1 (mTll-1) (protein)
chain: AATSRTERIWPGGVIPYVIGGNFTGSQRAMFKQAMRHWEKHTCVTFIERSDEESYIVFTYRPCGCCSYVGRRGNGPQAISIGKNCDKFGIVVHELGHVIGFWHEHTRPDRDNHVTIIRENIQPGQEYNFLKMEPGEVNSLGERYDFDSIMHYARNTFSRGMFLDTILPSRDDNGIRPAIGQRTRLSKGDIAQARKLYRCPACGETLQESNGNLSSPGFPNGYPSYTHCIWRVSVTPGEKIVLNFTTMDLYKSSLCWYDYIEVRDGYWRKSPLLGRFCGDKLPEVLTSTDSRMWIEFRSSSNWVGKGFAAVYEAICGGEIRKNEGQIQSPNYPDDYRPMKECVWKITVSESYHVGLTFQSFEIERHDNCAYDYLEVRDGTSENSPLIGRFCGYDKPEDIRSTSNTLWMKFVSDGTVNKAGFAANFFKEEDECAKPDRGGCEQRCLNTLGSYQCACEPGYELGPDRRSCEAACGGLLTKLNGTITTPGWPKEYPPNKNCVWQVVAPTQYRISVKFEFFELEGNEVCKYDYVEIWSGLSSESKLHGKFCGAEVPEVITSQFNNMRIEFKSDNTVSKKGFKAHFFSDKDECSKDNGGCQHECVNTMGSYMCQCRNGFVLHDNKHDCKEAECEQKIHSPSGLITSPNWPDKYPSRKECTWEISATPGHRIKLAFSEFEIEQHQECAYDHLEVFDGETEKSPILGRLCGNKIPDPLVATGNKMFVRFVSDASVQRKGFQATHSTECGGRLKAESKPRDLYSHAQFGDNNYPGQVDCEWLLVSERGSRLELSFQTFEVEEEADCGYDYVELFDGLDSTAVGLGRFCGSGPPEEIYSIGDSVLIHFHTDDTINKKGFHIRYKSIRYPDTTHTKK
cleavage of the α3 chain of laminin 5 (matrix digestion, western blot) [2]: BMP-1, mTld, mTll-1, and mTLL-2 all cleaved the α3 chain of laminin 5
